# Legend:
# [1] = test system: Yersinia pseudotuberculosis; assay: IC25 growth inhibition; higher = less potent
# Procedure, shortened: (§1)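 Under anaerobic conditions, OD578 was read hourly in a plate reader for at least three biological replicates of monocultures grown overnight in mGAM. Each culture started at an OD578 of 0.01 in pre-reduced plates holding twofold drug dilutions and 1% DMSO (or water). IC25 was reported as a tested interval: the lowest concentration where the monotonic median area under the growth curve dropped below the cutoff. That cutoff was 0.75.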
# Clostridium perfringens = assay: IC25 growth inhibition; higher = less potent
# Procedure, shortened: as §1
# Vibrio cholerae = assay: IC25 growth inhibition; higher = less potent
# Procedure, shortened: as §1
# Parabacteroides merdae = assay: IC25 growth inhibition; higher = less potent
# Procedure, shortened: as §1
# Collinsella aerofaciens = assay: IC25 growth inhibition; higher = less potent
# Procedure, shortened: as §1
# Dorea formicigenerans = assay: IC25 growth inhibition; higher = less potent
# Procedure, shortened: as §1
# [2] = test system: Fusobacterium nucleatum subsp. Nucleatum; assay: IC25 growth inhibition; higher = less potent
# Procedure, shortened: as §1
# Bacteroides fragilis NT = assay: IC25 growth inhibition; higher = less potent
# Procedure, shortened: as §1
# Ruminococcus gnavus = assay: IC25 growth inhibition; higher = less potent
# Procedure, shortened: as §1
# Eubacterium rectale = assay: IC25 growth inhibition; higher = less potent
# Procedure, shortened: as §1
# Clostridium bolteae = assay: IC25 growth inhibition; higher = less potent
# Procedure, shortened: as §1
# Clostridium ramosum = assay: IC25 growth inhibition; higher = less potent
# Procedure, shortened: as §1
# [3] = test system: Bacteroides thetaiotaomicron; assay: IC25 growth inhibition; higher = less potent
# Procedure, shortened: as §1
# Shigella flexneri = assay: IC25 growth inhibition; higher = less potent
# Procedure, shortened: as §1
# Bacteroides uniformis = assay: IC25 growth inhibition; higher = less potent
# Procedure, shortened: as §1
# Coprococcus comes = assay: IC25 growth inhibition; higher = less potent
# Procedure, shortened: as §1
# Bacteroides vulgatus = assay: IC25 growth inhibition; higher = less potent
# Procedure, shortened: as §1
# Escherichia coli ED1a = assay: IC25 growth inhibition; higher = less potent
# Procedure, shortened: as §1
# Streptococcus salivarius = assay: IC25 growth inhibition; higher = less potent
# Procedure, shortened: as §1
# Roseburia intestinalis = assay: IC25 growth inhibition; higher = less potent
# Procedure, shortened: as §1
# [4] = test system: Streptococcus parasanguinis; assay: IC25 growth inhibition; higher = less potent
# Procedure, shortened: as §1
# [5] = test system: Salmonella enterica typhimurium; assay: IC25 growth inhibition; higher = less potent
# Procedure, shortened: as §1
# [6] = test system: Clostridium saccharolyticum; assay: IC25 growth inhibition; higher = less potent
# Procedure, shortened: as §1
# [7] = test system: Yersinia enterocolitica WA-314; assay: IC25 growth inhibition; higher = less potent
# Procedure, shortened: as §1
# [8] = test system: Com21 synthetic gut community; assay: community biomass OD578 after 24 h drug treatment relative to untreated (fraction of untreated control); higher = more community growth; settings: community: Com21 (Com20 + E. coli ED1a)
# Description: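 Com21 (Com20 plus E. coli ED1a) was treated with drug for 24 h under anaerobic conditions in mGAM. Community OD578 was then measured and normalised to untreated Com21; mean of 3 biological replicates.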
# [9] = drug pretreatment concentration 10 µM
# [10] = drug pretreatment concentration 20 µM
# [11] = drug pretreatment concentration 40 µM
# [12] = drug pretreatment concentration 80 µM
# [13] = drug pretreatment concentration 160 µM
# [14] = drug pretreatment concentration 5 µM
# [15] = drug pretreatment concentration 2.5 µM
# 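For IC25 growth inhibition in this document: lowest concentration where monotonic median growth AUC falls below 0.75 of drug-free control.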
Structure (SMILES),IC25 growth inhibition [1],IC25 growth inhibition (Clostridium perfringens),IC25 growth inhibition (Vibrio cholerae),IC25 growth inhibition (Parabacteroides merdae),IC25 growth inhibition (Collinsella aerofaciens),IC25 growth inhibition (Dorea formicigenerans),IC25 growth inhibition [2],IC25 growth inhibition (Bacteroides fragilis NT),IC25 growth inhibition (Ruminococcus gnavus),IC25 growth inhibition (Eubacterium rectale),IC25 growth inhibition (Clostridium bolteae),IC25 growth inhibition (Clostridium ramosum),IC25 growth inhibition [3],IC25 growth inhibition (Shigella flexneri),IC25 growth inhibition (Bacteroides uniformis),IC25 growth inhibition (Coprococcus comes),IC25 growth inhibition (Bacteroides vulgatus),IC25 growth inhibition (Escherichia coli ED1a),IC25 growth inhibition (Streptococcus salivarius),IC25 growth inhibition (Roseburia intestinalis),IC25 growth inhibition [4],IC25 growth inhibition [5],IC25 growth inhibition [6],IC25 growth inhibition [7],"community biomass OD578 [8, 9]","community biomass OD578 [8, 10]","community biomass OD578 [8, 11]","community biomass OD578 [8, 12]","community biomass OD578 [8, 13]","community biomass OD578 [8, 14]","community biomass OD578 [8, 15]"
CC[C@H]1OC(=O)[C@H](C)[C@@H](O[C@H]2C[C@@](C)(OC)[C@@H](O)[C@H](C)O2)[C@H](C)[C@@H](O[C@@H]2O[C@H](C)C[C@H](N(C)C)[C@H]2O)[C@](C)(O)C[C@@H](C)C(=O)[C@H](C)[C@@H](O)[C@]1(C)O [Erythromycin],≤ 40 µM,< 1.25 µM,< 1.25 µM,< 1.25 µM,< 1.25 µM,< 1.25 µM,≤ 5 µM,< 1.25 µM,< 1.25 µM,< 1.25 µM,≤ 2.5 µM,< 1.25 µM,< 1.25 µM,≤ 10 µM,< 1.25 µM,< 1.25 µM,< 1.25 µM,≤ 20 µM,< 1.25 µM,< 1.25 µM,< 1.25 µM,≤ 40 µM,< 1.25 µM,≤ 20 µM,0.734,0.696,0.608,0.496,0.409,,
C#C[C@]1(O)CC[C@H]2[C@@H]3CCc4cc(O)ccc4[C@H]3CC[C@@]21C [Ethinylestradiol],> 80 µM,> 80 µM,≤ 40 µM,> 80 µM,> 80 µM,> 80 µM,> 80 µM,> 80 µM,> 80 µM,> 80 µM,> 80 µM,> 80 µM,> 80 µM,> 80 µM,> 80 µM,> 80 µM,> 80 µM,> 80 µM,> 80 µM,> 80 µM,> 80 µM,> 80 µM,> 80 µM,> 80 µM,0.986,0.99,0.976,0.779,,1.01,
CCN(CC)C(C)CN1c2ccccc2Sc2ccccc21 (configuration not stated) [Ethopropazine],> 80 µM,> 80 µM,> 80 µM,< 1.25 µM,> 80 µM,> 80 µM,> 80 µM,≤ 10 µM,> 80 µM,> 80 µM,> 80 µM,> 80 µM,≤ 2.5 µM,> 80 µM,≤ 10 µM,> 80 µM,< 1.25 µM,> 160 µM,> 80 µM,≤ 80 µM,> 80 µM,> 80 µM,> 80 µM,> 80 µM,0.981,0.995,0.997,0.992,0.97,,
O=c1[nH]c(=O)n([C@H]2C[C@H](O)[C@@H](CO)O2)cc1F [Floxuridine],≤ 5 µM,< 1.25 µM,≤ 10 µM,> 160 µM,> 160 µM,> 160 µM,≤ 80 µM,< 1.25 µM,≤ 2.5 µM,> 160 µM,≤ 80 µM,< 1.25 µM,< 1.25 µM,≤ 20 µM,< 1.25 µM,> 160 µM,< 1.25 µM,≤ 10 µM,< 1.25 µM,> 160 µM,< 1.25 µM,≤ 40 µM,≤ 160 µM,≤ 20 µM,0.993,0.907,0.886,0.882,0.88,,
OC(Cn1cncn1)(Cn1cncn1)c1ccc(F)cc1F [Fluconazole],> 160 µM,> 160 µM,> 160 µM,> 160 µM,≤ 160 µM,> 160 µM,> 160 µM,> 160 µM,> 160 µM,≤ 40 µM,> 160 µM,> 160 µM,> 160 µM,> 160 µM,> 160 µM,> 160 µM,> 160 µM,> 160 µM,> 160 µM,> 160 µM,> 160 µM,> 160 µM,> 160 µM,> 160 µM,0.936,1.02,0.993,0.99,1.04,,
CC(=O)N1CCN(c2ccc(OCC3COC(Cn4ccnc4)(c4ccc(Cl)cc4Cl)O3)cc2)CC1 (configuration not stated) [Ketoconazole],> 160 µM,≤ 80 µM,> 160 µM,≤ 40 µM,≤ 80 µM,≤ 40 µM,≤ 160 µM,≤ 80 µM,≤ 80 µM,≤ 40 µM,> 160 µM,> 160 µM,≤ 80 µM,> 80 µM,≤ 40 µM,≤ 40 µM,≤ 40 µM,> 160 µM,≤ 80 µM,≤ 80 µM,> 80 µM,> 160 µM,≤ 80 µM,> 80 µM,0.941,0.979,0.953,0.928,0.731,,
N[C@@H](Cc1cc(I)c(Oc2cc(I)c(O)c(I)c2)c(I)c1)C(=O)O [L-Thyroxin],> 160 µM,> 160 µM,> 160 µM,> 160 µM,> 160 µM,≤ 80 µM,> 160 µM,> 160 µM,> 160 µM,> 160 µM,> 160 µM,> 160 µM,> 160 µM,> 160 µM,> 160 µM,> 160 µM,> 160 µM,> 40 µM,> 160 µM,> 160 µM,> 160 µM,> 160 µM,> 160 µM,> 160 µM,1.01,1.03,1.02,,,0.999,0.996
CCOC(=O)C1=C(C)NC(C)=C(C(=O)OCC)C1c1ccccc1/C=C/C(=O)OC(C)(C)C [Lacidipine],> 20 µM,≤ 40 µM,> 40 µM,> 40 µM,> 20 µM,> 40 µM,> 40 µM,> 40 µM,> 40 µM,> 40 µM,> 20 µM,> 40 µM,> 20 µM,> 40 µM,> 40 µM,> 20 µM,> 40 µM,> 40 µM,> 40 µM,≤ 20 µM,> 20 µM,> 20 µM,> 20 µM,> 20 µM,1.04,1,0.963,,,1.01,1.01

# — the supplement of paper PMC12350171
